By Ki is commonly meant a measure of affinity in units of concentration, obtained from inhibition or displacement. High values mean weaker binding, low ones tighter binding.

This is an account of results in patent publication US20120040950A1, “ISOINDOLINONE INHIBITORS OF PHOSPHATIDYLINOSITOL 3-KINASE” (VERTEX PHARMACEUTICALS INCORPORATED, priority 2009, published 2012).

One experiment concerns the target PI3K-gamma (Homo sapiens, UniProt P48736). Briefly: PI3K Inhibition Assay. It counts as biochemical. On the procedure:
Using a Biomek FX from Beckman Coulter, 1.5 μL of each of ten 2.5-fold serial dilutions of a compound of the invention in 100% DMSO was added to an individual well (hereafter, “test well”) in a 96 well polystyrene plate [Corning, Costar Item No. 3697]. One test well also contained 1.5 μL of DMSO with no compound. […] Using a Titertek Multidrop, 50 μL of Reaction Mix [100 mM HEPES pH 7.5, 50 mM NaCl, 10 mM DTT, 0.2 mg/mL BSA, 60 μM phosphatidylinositol(4,5)bisphosphate diC16 (PI(4,5)P2; Avanti Polar Lipids, Cat. No. 840046P) and PI3K isoform of interest (see Table 3 for isoform concentrations)] was added to each well. To initiate the reaction, 50 μL of ATP Mix [20 mM MgCl2, 6 μM ATP (100 μCi/μmole ^33P-ATP)] was added each well, followed by incubating the wells for 30 min. at 25° C. Final concentrations in each well were 50 mM HEPES 7.5, 10 mM MgCl2, 25 mM NaCl, 5 mM DTT, 0.1 mg/mL BSA, 30 μM PI(4,5)P2, 3 μM ATP, and the PI3K isoform of interest (see Table 2). Final compound concentrations in each well ranged from 10 μM to 1 nM.
After incubation, the reactions in each well were quenched by addition of 50 μL of stop solution [30% TCA/Water, 10 mM ATP]. […] 50 μL of scintillation fluid was added to each well and the plate read on a Perkin-Elmer TopCount™ NXT liquid scintillation counter to obtain ^33P-counts representing inhibition values. […]

The next experiment deals with activated microglia. Briefly: Microglia Activation Assay (LPS-injected mice, Iba1 IHC of brain). The class given is in vivo, Female C57B1/6J mice. The conditions noted are these: 10 mg/kg b.i.d. orally by gavage, 4 doses, LPS 0.5 mg/kg i.p. for three days.

PI3K-gamma, sequence (P48736 whole entry, species assumed, canonical isoform): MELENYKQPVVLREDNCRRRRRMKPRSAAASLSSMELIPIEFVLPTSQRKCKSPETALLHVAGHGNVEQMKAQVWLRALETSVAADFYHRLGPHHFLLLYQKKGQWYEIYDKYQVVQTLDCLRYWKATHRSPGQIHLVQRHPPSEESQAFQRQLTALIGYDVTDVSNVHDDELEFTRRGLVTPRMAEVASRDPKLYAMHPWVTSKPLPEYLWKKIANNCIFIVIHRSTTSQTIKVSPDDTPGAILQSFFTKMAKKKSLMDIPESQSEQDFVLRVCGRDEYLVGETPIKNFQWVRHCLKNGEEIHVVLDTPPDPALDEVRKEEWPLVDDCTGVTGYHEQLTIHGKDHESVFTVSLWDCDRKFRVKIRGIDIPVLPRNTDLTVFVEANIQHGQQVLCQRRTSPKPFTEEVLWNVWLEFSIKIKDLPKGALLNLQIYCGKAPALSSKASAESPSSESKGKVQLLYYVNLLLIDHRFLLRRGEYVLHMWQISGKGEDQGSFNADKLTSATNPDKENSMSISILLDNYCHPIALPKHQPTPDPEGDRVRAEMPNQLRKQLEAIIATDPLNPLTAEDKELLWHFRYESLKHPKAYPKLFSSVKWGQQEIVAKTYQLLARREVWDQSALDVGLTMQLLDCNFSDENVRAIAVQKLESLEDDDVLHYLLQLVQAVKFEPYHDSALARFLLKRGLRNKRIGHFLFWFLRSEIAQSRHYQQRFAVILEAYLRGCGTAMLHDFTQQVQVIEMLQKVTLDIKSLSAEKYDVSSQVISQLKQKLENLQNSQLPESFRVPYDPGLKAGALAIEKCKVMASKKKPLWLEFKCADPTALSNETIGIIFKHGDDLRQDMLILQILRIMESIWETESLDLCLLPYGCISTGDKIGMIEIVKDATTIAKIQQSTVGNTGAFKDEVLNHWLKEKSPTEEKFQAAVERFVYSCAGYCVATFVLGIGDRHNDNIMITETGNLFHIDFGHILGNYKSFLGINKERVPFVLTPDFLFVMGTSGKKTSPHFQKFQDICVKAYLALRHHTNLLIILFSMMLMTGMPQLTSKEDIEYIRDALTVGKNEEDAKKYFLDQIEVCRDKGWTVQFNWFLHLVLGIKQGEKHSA
Method for activated microglia: Female C57B1/6J mice (7 weeks old) were purchased from Jackson Laboratory (Maine, US). Animals were acclimated for a week at standard laboratory conditions (12 hrs light cycles) with free access to rodent chow and water. All procedures were in accordance with the National Institute of Health Guidelines for the care and Use of Laboratory Animals and were approved by IACUCC. The endotoxin Lipopolysaccharide (LPS) (E. coli 011:B4, cat#437627) was purchased from Calbiochem. LPS was dissolved in PBS buffer at a concentration of 0.05 mg/ml and stored in frozen aliquots. At the start of the study, mice received an intraperitoneal (i.p.) injection of LPS (0.5 mg/kg) for three consecutive days. Therapeutic treatment with VRT compounds was started together with the 2nd LPS administration and maintained throughout the study. Compound was dosed twice a day orally by gavage for a total of 4 doses. 24 h following the last LPS injection, and 2 hrs following the last VRT dose, animals were sacrificed by CO2 asphyxiation. […]
Digital images were captured using the Aperio ScanScope Slide Scanner (Aperio Technologies, Vista, Calif.). Images were captured at 20× optical magnification, and analyzed using the software Definiens Developer XD. […] Compound efficacy was calculated as percent decrease in number of activated microglia relative to vehicle control.

In turn, `COc1cc(-c2nc3c(cc2C)C(=O)N(c2cn[nH]c2)C3)cnc1OC` [Compound 238, 2-(5,6-dimethoxypyridin-3-yl)-3-methyl-6-(1H-pyrazol-4-yl)-6,7-dihydro-5H-pyrrolo[3,4-b]pyridin-5-one] came in with a Ki at PI3K-gamma of 500 to 2500 nM.
For the compound `Cc1cc(-c2cncc(OC(F)F)c2)nc2c1C(=O)N(c1cnn(CC(F)(F)F)c1)C2` [Compound 271], the “percent decrease in number of activated microglia relative to vehicle control” value in the experiment with activated microglia came out at 39%.
